# Assay results taken from ChEMBL document CHEMBL1201861, “Genomics of Drug Sensitity in Cancer screening data, Wellcome Trust Sanger Institute”.
# Where a name gives a salt, the structure may show the parent alone.
# Legend:
# Test in all cases: cells
# RCC10RGB = type: functional, cell-based, Homo sapiens; settings: Homo sapiens, RCC10RGB;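 note: growth inhibition of human RCC10RGB cells, read out by a cell viability assay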
# Description: SANGER: Inhibition of human RCC10RGB cell growth in a cell viability assay.
# OS-RC-2 = type: functional, cell-based, Homo sapiens; settings: Homo sapiens, OS-RC-2;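 note: growth inhibition of human OS-RC-2 cells, measured by a cell viability assay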
# Description: SANGER: Inhibition of human OS-RC-2 cell growth in a cell viability assay.
# SNU-C2B = type: functional, cell-based, Homo sapiens; settings: Homo sapiens, SNU-C2B;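 note: cell viability readout used to measure compound-driven suppression of SNU-C2B cell proliferation, IC50 marking half-maximal growth inhibition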
# Description: SANGER: Inhibition of human SNU-C2B cell growth in a cell viability assay.
# DU-4475 = type: functional, cell-based, Homo sapiens; settings: Homo sapiens, DU-4475
# Description: SANGER: Inhibition of human DU-4475 cell growth in a cell viability assay.
# NCI-H1355 = type: functional, cell-based, Homo sapiens; settings: Homo sapiens, NCI-H1355;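 note: growth inhibition of human NCI-H1355 cells, read out by a cell viability assay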
# Description: SANGER: Inhibition of human NCI-H1355 cell growth in a cell viability assay.
# NCI-H1395 = type: functional, cell-based, Homo sapiens; settings: Homo sapiens, NCI-H1395;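 note: cell viability assay read-out quantifying reduced proliferation of human NCI-H1395 cells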
# Description: SANGER: Inhibition of human NCI-H1395 cell growth in a cell viability assay.
# HOP-62 = type: functional, cell-based, Homo sapiens; settings: Homo sapiens, HOP-62;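 note: cell growth inhibition determined with a viability assay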
# Description: SANGER: Inhibition of human HOP-62 cell growth in a cell viability assay.
# RS4-11 = type: functional, cell-based, Homo sapiens; settings: Homo sapiens, RS4-11;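 note: growth inhibition of RS4-11 cells, read out by a cell viability assay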
# Description: SANGER: Inhibition of human RS4-11 cell growth in a cell viability assay.
# K5 = type: functional, cell-based, Homo sapiens; settings: Homo sapiens, K5
# Description: SANGER: Inhibition of human K5 cell growth in a cell viability assay.
# SK-NEP-1 = type: functional, cell-based, Homo sapiens; settings: Homo sapiens, SK-NEP-1;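 note: growth inhibition of human SK-NEP-1 cells, read out by a cell viability assay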
# Description: SANGER: Inhibition of human SK-NEP-1 cell growth in a cell viability assay.
# HDLM-2 = type: functional, cell-based, Homo sapiens; settings: Homo sapiens, HDLM-2;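 note: cell viability assay measuring suppression of HDLM-2 proliferation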
# Description: SANGER: Inhibition of human HDLM-2 cell growth in a cell viability assay.
# NB13 = type: functional, cell-based, Homo sapiens; settings: Homo sapiens, NB13;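 note: cell viability readout measuring growth inhibition of human NB13 cells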
# Description: SANGER: Inhibition of human NB13 cell growth in a cell viability assay.
# TK-10 = type: functional, cell-based, Homo sapiens; settings: Homo sapiens, TK-10;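 note: growth inhibition of TK-10 cells, read out in a cell viability assay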
# Description: SANGER: Inhibition of human TK10 cell growth in a cell viability assay.
# NCI-H510A = type: functional, cell-based, Homo sapiens; settings: Homo sapiens, NCI-H510A;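 note: growth inhibition of NCI-H510A cells, read out with a cell viability assay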
# Description: SANGER: Inhibition of human NCI-H510A cell growth in a cell viability assay.
# NCI-H747 = type: functional, cell-based, Homo sapiens; settings: Homo sapiens, NCI-H747;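 note: growth inhibition of human NCI-H747 cells, read out by a cell viability assay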
# Description: SANGER: Inhibition of human NCI-H747 cell growth in a cell viability assay.
# D-502MG = type: functional, cell-based, Homo sapiens; settings: Homo sapiens, D-502MG
# Description: SANGER: Inhibition of human D-502MG cell growth in a cell viability assay.
# CAS-1 = type: functional, cell-based, Homo sapiens; settings: Homo sapiens, CAS-1;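 note: growth inhibition of CAS-1 cells, measured with a cell viability assay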
# Description: SANGER: Inhibition of human CAS-1 cell growth in a cell viability assay.
# OCUB-M = type: functional, cell-based, Homo sapiens; settings: Homo sapiens, OCUB-M;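 note: growth inhibition of the cancer cell line, read out through a cell viability assay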
# Description: SANGER: Inhibition of human OCUB-M cell growth in a cell viability assay.
# TE-6 = type: functional, cell-based, Homo sapiens; settings: Homo sapiens, TE-6;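 note: growth inhibition of TE-6 cells, read out with a cell viability assay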
# Description: SANGER: Inhibition of human TE-6 cell growth in a cell viability assay.
# Ramos-2G6-4C10 = type: functional, cell-based, Homo sapiens; settings: Homo sapiens, Ramos-2G6-4C10;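 note: growth inhibition of the cell line, measured by a cell viability read-out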
# Description: SANGER: Inhibition of human Ramos-2G6-4C10 cell growth in a cell viability assay.
# KS-1 = type: functional, cell-based, Homo sapiens; settings: Homo sapiens, KS-1;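 note: growth inhibition of KS-1 cells, read out with a cell viability assay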
# Description: SANGER: Inhibition of human KS-1 cell growth in a cell viability assay.
# BE-13 = type: functional, cell-based, Homo sapiens; settings: Homo sapiens, BE-13;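 note: growth inhibition of human BE-13 cells, measured with a cell viability assay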
# Description: SANGER: Inhibition of human BE-13 cell growth in a cell viability assay.
# GI-ME-N = type: functional, cell-based, Homo sapiens; settings: Homo sapiens, GI-ME-N;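 note: growth inhibition of human GI-ME-N cells, read out with a cell viability assay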
# Description: SANGER: Inhibition of human GI-ME-N cell growth in a cell viability assay.
# IST-SL1 = type: functional, cell-based, Homo sapiens; settings: Homo sapiens, IST-SL1;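 note: growth inhibition of human IST-SL1 cells, read out with a cell viability assay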
# Description: SANGER: Inhibition of human IST-SL1 cell growth in a cell viability assay.
# EM-2 = type: functional, cell-based, Homo sapiens; settings: Homo sapiens, EM-2;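 note: growth inhibition of EM-2 cells, read out with a cell viability assay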
# Description: SANGER: Inhibition of human EM-2 cell growth in a cell viability assay.
# NCI-H1304 = type: functional, cell-based, Homo sapiens; settings: Homo sapiens, NCI-H1304;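 note: growth inhibition of the cancer cell line, measured in a cell viability assay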
# Description: SANGER: Inhibition of human NCI-H1304 cell growth in a cell viability assay.
# IST-MES1 = type: functional, cell-based, Homo sapiens; settings: Homo sapiens, IST-MES1;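 note: growth inhibition of IST-MES1 cells, measured with a cell viability assay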
# Description: SANGER: Inhibition of human IST-MES1 cell growth in a cell viability assay.
# MMAC-SF = type: functional, cell-based, Homo sapiens; settings: Homo sapiens, MMAC-SF;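 note: growth inhibition of human MMAC-SF cells, read out with a cell viability assay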
# Description: SANGER: Inhibition of human MMAC-SF cell growth in a cell viability assay.
# TE-11 = type: functional, cell-based, Homo sapiens; settings: Homo sapiens, TE-11;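 note: growth inhibition of human TE-11 cells, read out by a cell viability assay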
# Description: SANGER: Inhibition of human TE-11 cell growth in a cell viability assay.
# DSH1 = type: functional, cell-based, Homo sapiens; settings: Homo sapiens, DSH1;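 note: growth inhibition of human DSH1 cells, measured with a cell viability readout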
# Description: SANGER: Inhibition of human DSH1 cell growth in a cell viability assay.
# EW-11 = type: functional, cell-based, Homo sapiens; settings: Homo sapiens, EW-11;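 note: growth inhibition of human EW-11 cells, measured with a cell viability assay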
# Description: SANGER: Inhibition of human EW-11 cell growth in a cell viability assay.
# D283 Med = type: functional, cell-based, Homo sapiens; settings: Homo sapiens, D283 Med
# Description: SANGER: Inhibition of human D-283MED cell growth in a cell viability assay.
# MPP-89 = type: functional, cell-based, Homo sapiens; settings: Homo sapiens, MPP-89;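 note: growth inhibition of human MPP-89 cells, read out with a cell viability assay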
# Description: SANGER: Inhibition of human MPP-89 cell growth in a cell viability assay.
# U-87 MG = type: functional, cell-based, Homo sapiens, U-87MG ATCC; settings: Homo sapiens, U-87 MG;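 note: growth inhibition of the cells measured with a viability assay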
# Description: SANGER: Inhibition of human U-87-MG cell growth in a cell viability assay.
# U-266 = type: functional, cell-based, Homo sapiens; settings: Homo sapiens, U-266
# Description: SANGER: Inhibition of human U-266 cell growth in a cell viability assay.
# NB69 = type: functional, cell-based, Homo sapiens; settings: Homo sapiens, NB69;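 note: growth inhibition of NB69 cells, determined by a cell viability assay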
# Description: SANGER: Inhibition of human NB69 cell growth in a cell viability assay.
# EW-3 = type: functional, cell-based, Homo sapiens; settings: Homo sapiens, EW-3;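 note: cell viability assay read-out, IC50 reflects inhibition of growth of the EW-3 cells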
# Description: SANGER: Inhibition of human EW-3 cell growth in a cell viability assay.
# MOLT-16 = type: functional, cell-based, Homo sapiens; settings: Homo sapiens, MOLT-16;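 note: growth inhibition of human MOLT-16 cells, read out with a cell viability assay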
# Description: SANGER: Inhibition of human MOLT-16 cell growth in a cell viability assay.
# GB-1 = type: functional, cell-based, Homo sapiens; settings: Homo sapiens, GB-1;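 note: growth of GB-1 cells judged by a viability assay, IC50 marks the concentration inhibiting growth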
# Description: SANGER: Inhibition of human GB-1 cell growth in a cell viability assay.
# CGTH-W-1 = type: functional, cell-based, Homo sapiens; settings: Homo sapiens, CGTH-W-1;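 note: growth inhibition of human CGTH-W-1 cells measured by cell viability assay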
# Description: SANGER: Inhibition of human CGTH-W-1 cell growth in a cell viability assay.
# GOTO = type: functional, cell-based, Homo sapiens; settings: Homo sapiens, GOTO;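 note: growth inhibition of GOTO cells, read out by a cell viability assay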
# Description: SANGER: Inhibition of human GOTO cell growth in a cell viability assay.
# IA-LM = type: functional, cell-based, Homo sapiens; settings: Homo sapiens, IA-LM;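 note: cell viability assay measuring growth inhibition of human IA-LM cells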
# Description: SANGER: Inhibition of human IA-LM cell growth in a cell viability assay.
# NCI-H526 = type: functional, cell-based, Homo sapiens; settings: Homo sapiens, NCI-H526;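 note: growth inhibition of the human NCI-H526 cell line, measured by a cell viability assay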
# Description: SANGER: Inhibition of human NCI-H526 cell growth in a cell viability assay.
# EW-24 = type: functional, cell-based, Homo sapiens; settings: Homo sapiens, EW-24;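 note: human EW-24 cancer cell line, growth inhibition read out via a cell viability assay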
# Description: SANGER: Inhibition of human EW-24 cell growth in a cell viability assay.
# C2BBe1 = type: functional, cell-based, Homo sapiens; settings: Homo sapiens, C2BBe1;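 note: growth inhibition of C2BBe1 cells, read out through a viability assay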
# Description: SANGER: Inhibition of human C2BBe1 cell growth in a cell viability assay.
# MSTO-211H = type: functional, cell-based, Homo sapiens; settings: Homo sapiens, MSTO-211H
# Description: SANGER: Inhibition of human MSTO-211H cell growth in a cell viability assay.
# GI-1 = type: functional, cell-based, Homo sapiens; settings: Homo sapiens, GI-1;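 note: growth inhibition of human GI-1 cells, measured with a cell viability readout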
# Description: SANGER: Inhibition of human GI-1 cell growth in a cell viability assay.
# SK-MEL-1 = type: functional, cell-based, Homo sapiens; settings: Homo sapiens, SK-MEL-1;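 note: growth inhibition of human SK-MEL-1 cells, read out by a cell viability assay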
# Description: SANGER: Inhibition of human SK-MEL-1 cell growth in a cell viability assay.
structure (smiles),measurement,setting,value
Nc1ccn([C@@H]2O[C@H](CO)[C@@H](O)C2(F)F)c(=O)n1 [GEMCITABINE],IC50,RCC10RGB,0.634 µM
same,IC50,OS-RC-2,0.00668 µM
same,IC50,SNU-C2B,> 1.02 µM
same,IC50,DU-4475,0.00314 µM
same,IC50,NCI-H1355,< 0.004 µM
same,IC50,NCI-H1395,> 1.02 µM
same,IC50,HOP-62,0.223 µM
same,IC50,RS4-11,< 0.004 µM
same,IC50,K5,0.683 µM
same,IC50,SK-NEP-1,0.0229 µM
same,IC50,HDLM-2,> 1.02 µM
same,IC50,NB13,0.0382 µM
same,IC50,TK-10,0.0145 µM
same,IC50,NCI-H510A,0.0333 µM
same,IC50,NCI-H747,0.0423 µM
same,IC50,D-502MG,> 1.02 µM
same,IC50,CAS-1,0.955 µM
same,IC50,OCUB-M,0.01 µM
same,IC50,TE-6,0.25 µM
same,IC50,Ramos-2G6-4C10,0.661 µM
same,IC50,KS-1,0.167 µM
same,IC50,BE-13,0.00521 µM
same,IC50,GI-ME-N,> 1.02 µM
same,IC50,IST-SL1,0.197 µM
same,IC50,EM-2,0.16 µM
same,IC50,NCI-H1304,0.385 µM
same,IC50,IST-MES1,0.774 µM
same,IC50,MMAC-SF,> 1.02 µM
same,IC50,TE-11,> 1.02 µM
same,IC50,DSH1,0.0965 µM
same,IC50,EW-11,0.434 µM
same,IC50,D283 Med,0.127 µM
same,IC50,MPP-89,0.692 µM
same,IC50,U-87 MG,0.191 µM
same,IC50,U-266,0.608 µM
same,IC50,NB69,0.00105 µM
same,IC50,EW-3,0.58 µM
same,IC50,MOLT-16,0.0431 µM
same,IC50,GB-1,0.00584 µM
same,IC50,CGTH-W-1,0.00272 µM
same,IC50,GOTO,> 1.02 µM
same,IC50,IA-LM,0.00591 µM
same,IC50,NCI-H526,0.11 µM
same,IC50,EW-24,> 1.02 µM
same,IC50,C2BBe1,> 1.02 µM
same,IC50,MSTO-211H,> 1.02 µM
same,IC50,GI-1,0.00276 µM
same,IC50,SK-MEL-1,> 1.02 µM
O=C(O)c1ccc(-c2c[nH]c3ncc(-c4ccccc4)cc23)cc1C1CCCC1 [GSK-650394],IC50,RCC10RGB,> 16 µM
same,IC50,OS-RC-2,> 16 µM
same,IC50,SNU-C2B,> 16 µM
same,IC50,DU-4475,> 16 µM
same,IC50,NCI-H1355,> 16 µM
same,IC50,NCI-H1395,> 16 µM
same,IC50,HOP-62,> 16 µM
same,IC50,RS4-11,8.96 µM
same,IC50,K5,> 16 µM
same,IC50,SK-NEP-1,> 16 µM
same,IC50,HDLM-2,> 16 µM
same,IC50,NB13,> 16 µM
same,IC50,TK-10,> 16 µM
same,IC50,NCI-H510A,> 16 µM
same,IC50,NCI-H747,> 16 µM
same,IC50,D-502MG,> 16 µM
same,IC50,CAS-1,11 µM
same,IC50,OCUB-M,2.79 µM
same,IC50,TE-6,> 16 µM
same,IC50,Ramos-2G6-4C10,> 16 µM
same,IC50,KS-1,> 16 µM
same,IC50,BE-13,> 16 µM
same,IC50,GI-ME-N,> 16 µM
same,IC50,IST-SL1,> 16 µM
same,IC50,EM-2,> 16 µM
same,IC50,NCI-H1304,> 16 µM
same,IC50,IST-MES1,> 16 µM
same,IC50,MMAC-SF,> 16 µM
same,IC50,TE-11,> 16 µM
same,IC50,DSH1,> 16 µM
same,IC50,EW-11,> 16 µM
same,IC50,D283 Med,> 16 µM
same,IC50,MPP-89,9.27 µM
same,IC50,U-87 MG,> 16 µM
same,IC50,U-266,> 16 µM
same,IC50,NB69,> 16 µM
same,IC50,EW-3,> 16 µM
same,IC50,MOLT-16,3.52 µM
same,IC50,GB-1,5.96 µM
same,IC50,CGTH-W-1,2.1 µM
same,IC50,GOTO,> 16 µM
same,IC50,IA-LM,4.12 µM
same,IC50,NCI-H526,6.04 µM
same,IC50,EW-24,> 16 µM
same,IC50,C2BBe1,> 16 µM
same,IC50,MSTO-211H,> 16 µM
same,IC50,GI-1,> 16 µM
same,IC50,SK-MEL-1,> 16 µM
COC1=CC(c2cc3ccccc3[nH]2)=N/C1=C\c1[nH]c(C)cc1C [OBATOCLAX MESYLATE],IC50,RCC10RGB,1.14 µM
same,IC50,OS-RC-2,0.431 µM
same,IC50,SNU-C2B,0.868 µM
same,IC50,DU-4475,0.162 µM
same,IC50,NCI-H1355,0.153 µM
same,IC50,NCI-H1395,> 16 µM
same,IC50,HOP-62,0.0825 µM
same,IC50,RS4-11,0.085 µM
same,IC50,K5,0.532 µM
same,IC50,SK-NEP-1,1.82 µM
same,IC50,HDLM-2,0.42 µM
same,IC50,NB13,0.0642 µM
same,IC50,TK-10,0.177 µM
same,IC50,NCI-H510A,0.772 µM
same,IC50,NCI-H747,0.143 µM
same,IC50,D-502MG,6.32 µM
same,IC50,CAS-1,1.09 µM
same,IC50,OCUB-M,0.225 µM
same,IC50,TE-6,1.04 µM
same,IC50,Ramos-2G6-4C10,0.129 µM
same,IC50,KS-1,0.305 µM
same,IC50,BE-13,0.129 µM
same,IC50,GI-ME-N,5.01 µM
same,IC50,IST-SL1,6.54 µM
same,IC50,EM-2,3.64 µM
same,IC50,NCI-H1304,1.64 µM
same,IC50,IST-MES1,0.286 µM
same,IC50,MMAC-SF,0.0767 µM
same,IC50,TE-11,0.302 µM
same,IC50,DSH1,4.47 µM
same,IC50,EW-11,5.18 µM
same,IC50,D283 Med,1.12 µM
same,IC50,MPP-89,0.463 µM
same,IC50,U-87 MG,2.29 µM
same,IC50,U-266,0.311 µM
same,IC50,NB69,0.0157 µM
same,IC50,EW-3,3.41 µM
same,IC50,MOLT-16,1.73 µM
same,IC50,GB-1,0.164 µM
same,IC50,CGTH-W-1,0.399 µM
same,IC50,GOTO,4.3 µM
same,IC50,IA-LM,0.0605 µM
same,IC50,NCI-H526,2.63 µM
same,IC50,EW-24,0.34 µM
same,IC50,C2BBe1,2.42 µM
same,IC50,MSTO-211H,4.84 µM
same,IC50,GI-1,0.275 µM
same,IC50,SK-MEL-1,> 16 µM
